# Data from patent US9598463B2, “Mucin hypersecretion inhibitors and methods of use” (BIOMARCK PHARMACEUTICALS, LTD., priority 2005, dated 2017).
# Columns and labels:
# [1] = system: ATP-induced mucin hypersecretion; assay: Aerosolized Ac-peptide 106 on ATP-induced mucin hypersecretion in mouse model with goblet cell metaplasia; format: in vivo, BALB/c mice; details: aerosol
# Procedure: The efficacy of aerosolized Ac-peptide 106 on mucin hypersecretion in a mouse model of asthma was determined at two concentrations. Briefly, 5- to 8 week old BALB/c mice were immunized weekly as described above in Example 1A for 3 weeks with ovalbumin. On Day 28 the mice were challenged with aerosolized 2.5% ovalbumin in normal saline for 30 minutes. Three days after ovalbumin challenge, each group of mice (n=2) was administered an aerosolized isotonic solution of Ac-peptide 106 at […] or 30 mM for 1 hour with an AeroMist CA-209 nebulizer. The mass median aerodynamic diameter of the aerosol particles was 1.49 um (range 0.4 to 4.7 urn). Given these concentrations of Ac-peptide 106 and this particle size, the calculated pulmonary deposition of Ac-peptide 106 was 0.38 mg/kg body weight and 1.1 mg/kg body weight, respectively.
# Ac-peptide 106 administration was immediately followed by aerosol administration of the secretagogue adenosine triphosphate (ATP) ([…] in saline) for 5 minutes. The mice were sacrificed, and the lungs were harvested within 20 minutes. The lungs were rinsed with saline, fixed with paraformaldehyde, embedded in paraffin, and sectioned. The sections were quantitatively analyzed for the presence of mucin by quantitative immunohistochemistry according to the method of Evans et al. (Am. J. Respir. Cell Mol. Biol. Vol. 31, pp 382-394, 2004).
# HBE1 cells = assay: PMA-induced mucin hypersecretion in human bronchial epithelial cells (air/liquid interface, MUC5A ELISA); format: cell-based; details: pretreatment with 25 μM peptide, then 0.5 μM PMA
substance,measurement,setting,value
Ac-GAQFSKTAAK-OH [Ac-peptide 106],Inhibition of ATP-induced mucin hypersecretion,[1]; calculated pulmonary deposition 0.38 mg/kg body weight,30%
same,Inhibition of ATP-induced mucin hypersecretion,[1]; calculated pulmonary deposition 1.1 mg/kg body weight,67%
same,Block of PMA-induced increase in mucin secretion,HBE1 cells,100%
